Where a name gives a salt, the structure may show the parent alone. Read-outs that look alike come from different tables or passages of the source.
Tests used:
[1] = test system: NCI-H292 lung cancer cells; assay: FDA drug screening, complete media vs cholesterol-free media without statin (TABLE 1); type: cell-based, human
[2] = test system: NCI-H292 lung cancer cells; assay: FDA drug screening, complete media vs cholesterol-free media with simvastatin (TABLE 2); type: cell-based, human
[3] = Complete minus Cholesterol-free, >0 enhanced anti-cancer activity, about 0 neutral, <0 antagonist
[4] = NCI-H292 cells, cholesterol-free media without statin
[5] = NCI-H292 cells, FDA drug library screen, cholesterol-free media with simvastatin 0.04 μM
[6] = NCI-H292 cells, FDA drug library screen, complete media
[7] = complete media minus cholesterol-free media + simvastatin, >0 enhanced anti-cancer activity, about 0 neutral, <0 antagonist
[8] = NCI-H292 cells, cholesterol-free media without statin, FDA drug library screen
[9] = NCI-H292 cells, complete media, FDA drug library screen
[10] = complete vs cholesterol-free media, >0 enhanced anti-cancer activity, about 0 neutral, <0 antagonist
[11] = Complete minus Cholesterol-free, greater than 0 enhanced anti-cancer activity, about 0 neutral, below 0 antagonist
[12] = NCI-H292 cells, FDA drug library screen, cholesterol-free media without statin
[13] = NCI-H292 cells, drug in cholesterol-free media with simvastatin 0.04 μM
[14] = NCI-H292 cells, drug in complete media
[15] = complete media vs cholesterol-free media + simvastatin (0.04 μM), >0 enhanced anti-cancer activity, about 0 neutral, <0 antagonist
[16] = NCI-H292 cells, cholesterol-free media with simvastatin 0.04 μM, FDA drug library screen (TABLE 2)
[17] = NCI-H292 cells, complete media, FDA drug library screen (TABLE 2)
[18] = Complete minus Cholesterol-free, greater than 0 enhanced anti-cancer activity, about 0 neutral, below 0 antagonists
[19] = NCI-H292 cells in cholesterol-free media without statin
[20] = NCI-H292 cells in complete media
[21] = NCI-H292 cells, cholesterol-free media with simvastatin 0.04 μM, cell growth value in FDA drug screen
[22] = NCI-H292 cells, complete media, cell growth value in FDA drug screen

`CC(C)c1c(C(=O)Nc2ccccc2)c(-c2ccccc2)c(-c2ccc(F)cc2)n1CC[C@@H](O)C[C@@H](O)CC(=O)O` [Atorvastatin (hemicalcium salt)] showed a Difference [1, 3] of −0.21, a Cholesterol-free [1, 4] of 0.7947 and a Complete ([1]; NCI-H292 cells, complete media) of 0.5817. The “Cholesterol-free media + simvastatin (0.04 μM)” value [2, 5] was 0.4555, the “Complete Media” value [2, 6] was 0.7295 and the Difference [2, 7] was 0.27.
`O=C1C(O)=C([C@H]2CC[C@H](c3ccc(Cl)cc3)CC2)C(=O)c2ccccc21` [Atovaquone] gave a Cholesterol-free [1, 8] of 0.9543, a Complete [1, 9] of 1.102 and a Difference [1, 10] of 0.15. The “Cholesterol-free media + simvastatin (0.04 μM)” value [2, 5] was 1.327, the “Complete Media” value [2, 6] was 1.493 and the Difference [2, 7] was 0.17.
Work on `CCCCN(CCCC)C(=O)CN1C[C@H](c2ccc3c(c2)OCO3)[C@@H](C(=O)O)[C@@H]1c1ccc(OC)cc1` [Atrasentan (hydrochloride)] yielded a Difference [1, 11] of −0.17, a Cholesterol-free [1, 12] of 1.198 and a Complete [1, 6] of 1.025. The “Cholesterol-free media + simvastatin (0.04 μM)” value [2, 13] was 1.092, the “Complete Media” value [2, 14] was 0.8532 and the Difference [2, 15] was −0.24.
In the case of `CN1[C@@H]2CC[C@H]1C[C@@H](OC(=O)C(CO)c1ccccc1)C2` (stereo partly shown) [Atropine (sulfate monohydrate)], the Complete [1] is reported as 1.139, the Difference [1] is reported as 0.08 and the “Cholesterol-free media + simvastatin (0.04 μM)” value [2] is reported as 0.6465. For the same compound, the “Complete Media” value [2] was 0.6938 and the Difference [2] was 0.05.
`C[N+]1(C)[C@@H]2CC[C@H]1C[C@@H](OC(=O)C(CO)c1ccccc1)C2` (stereo partly shown) [Atropine methyl bromide] was tested, and the Cholesterol-free [1, 8] was 1.114, the Complete [1, 9] was 1.708 and the Difference [1, 10] was 0.59. The “Cholesterol-free media + simvastatin (0.04 μM)” value [2, 13] was 1.143, the “Complete Media” value [2, 14] was 0.9562 and the Difference [2, 15] was −0.19.
With `CN1[C@@H]2CC[C@H]1C[C@@H](OC(=O)C(CO)c1ccccc1)C2` (stereo partly shown) [Atropine] the Cholesterol-free [1] was 1.317, the Complete [1] was 0.8977 and the Difference [1] was −0.42. The “Cholesterol-free media + simvastatin (0.04 μM)” value [2] was 1.317 and the Difference [2] was −0.28.
For `CC(=O)OC[C@H]1O[C@@H]([S-])[C@H](OC(C)=O)[C@@H](OC(C)=O)[C@@H]1OC(C)=O.CCP(CC)CC.[Au+]` [Auranofin], the Difference ([1]; Complete minus Cholesterol-free, […]) was 0.01, the Cholesterol-free [1, 8] was −0.008527 and the Complete [1, 9] was 0.0049. For the same compound, the “Cholesterol-free media + simvastatin (0.04 μM)” value [2, 16] was 0.01251, the “Complete Media” value [2, 17] was 0.0008313 and the Difference ([2]; complete media minus cholesterol-free media + simvastatin (0.04 μM), […]) was −0.01.
Work on `COc1ccc(CN=c2[nH]c(N3CCC[C@H]3CO)ncc2C(=O)NCc2ncccn2)cc1Cl` [Avanafil] yielded a Difference [1, 3] of −0.27, a Cholesterol-free [1, 4] of 0.9577 and a Complete ([1]; NCI-H292 cells, complete media) of 0.6848. The “Cholesterol-free media + simvastatin (0.04 μM)” value [2, 13] was 1.12, the “Complete Media” value [2, 14] was 0.9091 and the Difference [2, 15] was −0.21.
For `O=C(Nc1nc(-c2cc(Cl)cs2)c(N2CCN(C3CCCCC3)CC2)s1)c1cnc(N2CCC(C(=O)O)CC2)c(Cl)c1` [Avatrombopag (hydrochloride)], the Difference [1, 11] was −0.15, the Cholesterol-free [1, 12] was 0.9128 and the Complete [1, 6] was 0.7673. The “Cholesterol-free media + simvastatin (0.04 μM)” value [2, 5] was 1.18, the “Complete Media” value [2, 6] was 1.082 and the Difference [2, 15] was −0.10.
Work on `NC(=O)[C@@H]1CC[C@@H]2CN1C(=O)N2OS(=O)(=O)O` [Avibactam (sodium hydrate)] yielded a Cholesterol-free [1, 8] of 0.6447, a Complete [1, 9] of 0.883 and a Difference [1, 10] of 0.24. The “Cholesterol-free media + simvastatin (0.04 μM)” value [2, 5] was 1.124, the “Complete Media” value [2, 6] was 1.029 and the Difference [2, 15] was −0.09.
In the case of `NC(=O)[C@@H]1CC[C@@H]2CN1C(=O)N2OS(=O)(=O)O` [Avibactam (sodium)], the Difference [1, 18] is reported as −0.74, the Cholesterol-free [1, 19] is reported as 1.514 and the Complete [1, 20] is reported as 0.7743. The “Cholesterol-free media + simvastatin (0.04 μM)” value [2, 21] was 1.031, the “Complete Media” value [2, 22] was 1.132 and the Difference [2, 7] was 0.10.
`COc1ccc(C(=O)CC(=O)c2ccc(C(C)(C)C)cc2)cc1` [Avobenzone] was tested, and the Difference [1, 18] was −0.48, the Cholesterol-free [1, 19] was 1.457 and the Complete [1, 20] was 0.9767. The “Cholesterol-free media + simvastatin (0.04 μM)” value [2, 5] was 1.07, the “Complete Media” value [2, 6] was 0.9672 and the Difference [2, 15] was −0.10.
Work on `CNC(=O)c1ccccc1Sc1ccc2c(/C=C/c3ccccn3)n[nH]c2c1` [Axitinib] yielded a Cholesterol-free [1, 8] of 0.7104, a Complete [1, 9] of 1.034 and a Difference [1, 10] of 0.32. For the same compound, the “Cholesterol-free media + simvastatin (0.04 μM)” value [2, 13] was 0.9239, the “Complete Media” value [2, 14] was 0.7152 and the Difference [2, 15] was −0.21.
In the case of `O=C(CCCN1CCN(c2ccccn2)CC1)c1ccc(F)cc1` [Azaperone], the Difference [1, 3] is reported as −0.01, the Cholesterol-free [1, 8] is reported as 0.9307 and the Complete [1, 9] is reported as 0.9163. The “Cholesterol-free media + simvastatin (0.04 μM)” value [2, 16] was 1.007, the “Complete Media” value [2, 17] was 0.9983 and the Difference ([2]; complete media minus cholesterol-free media + simvastatin (0.04 μM), >0 enhanced anti-cancer activity, about 0 neutral, <0 antagonist) was −0.01.
Compound `CN1CCN(c2cc3c(nn2)Oc2ccccc2N3C)CC1.Cl.Cl.O` [Azaphen (dihydrochloride monohydrate)] has a Cholesterol-free [1, 4] of 1.204, a Complete ([1]; NCI-H292 cells, complete media) of 0.7783 and a Difference ([1]; complete vs cholesterol-free media, […]) of −0.43. For the same compound, the “Cholesterol-free media + simvastatin (0.04 μM)” value [2, 5] was 1.02, the “Complete Media” value [2, 6] was 0.9251 and the Difference ([2]; complete media vs cholesterol-free media + simvastatin (0.04 μM), […]) was −0.09.
`CN1C(=O)COc2c(C(=O)NC3CN4CCC3CC4)cc(Cl)cc21` (stereo not shown) [Azasetron (hydrochloride)] showed a Difference [1, 3] of −0.07, a Cholesterol-free [1, 8] of 0.8277 and a Complete [1, 9] of 0.7612. The “Cholesterol-free media + simvastatin (0.04 μM)” value [2, 21] was 0.9264, the “Complete Media” value [2, 22] was 0.9552 and the Difference [2, 7] was 0.03.
Compound `Cn1cnc([N+](=O)[O-])c1Sc1ncnc2nc[nH]c12` [Azathioprine] has a Difference [1, 3] of −0.20, a Cholesterol-free [1, 4] of 0.5865 and a Complete ([1]; NCI-H292 cells, complete media) of 0.3893. The “Cholesterol-free media + simvastatin (0.04 μM)” value [2, 13] was 1.672, the “Complete Media” value [2, 14] was 1.494 and the Difference [2, 15] was −0.18.
For `O=C(O)CCCCCCCC(=O)O` [Azelaic acid], the Difference [1, 18] was −0.60, the Cholesterol-free [1, 19] was 1.702 and the Complete [1, 20] was 1.104. The “Cholesterol-free media + simvastatin (0.04 μM)” value ([2]; NCI-H292 cells, FDA library drug in cholesterol-free media with simvastatin 0.04 μM) was 1.245, the “Complete Media” value ([2]; NCI-H292 cells, FDA library drug in complete media) was 0.8813 and the Difference [2, 15] was −0.36.
`CN1CCCC(n2nc(Cc3ccc(Cl)cc3)c3ccccc3c2=O)CC1` (stereo not shown) [Azelastine (hydrochloride)] was tested, and the Cholesterol-free [1, 8] was 0.9594, the Complete [1, 9] was 1.039 and the Difference [1, 10] was 0.08. The “Cholesterol-free media + simvastatin (0.04 μM)” value [2, 13] was 1.092, the “Complete Media” value [2, 14] was 0.8741 and the Difference [2, 15] was −0.22.
Compound `CC1=C(C(=O)OC(C)C)C(c2cccc([N+](=O)[O-])c2)C(C(=O)OC2CN(C(c3ccccc3)c3ccccc3)C2)=C(N)N1` (stereo not shown) [Azelnidipine] has a Difference [1, 11] of −0.15, a Cholesterol-free [1, 12] of 0.7076 and a Complete [1, 6] of 0.5567. For the same compound, the “Cholesterol-free media + simvastatin (0.04 μM)” value [2, 5] was 0.7982, the “Complete Media” value [2, 6] was 1.013 and the Difference [2, 7] was 0.21.
Work on `CCOc1nc2cccc(C(=O)OCc3oc(=O)oc3C)c2n1Cc1ccc(-c2ccccc2-c2noc(=O)[nH]2)cc1` [Azilsartan medoxomil] yielded a Difference [1, 18] of −0.49, a Cholesterol-free [1, 19] of 1.119 and a Complete [1, 20] of 0.6328. The “Cholesterol-free media + simvastatin (0.04 μM)” value [2, 5] was 1.394, the “Complete Media” value [2, 6] was 1.269 and the Difference [2, 15] was −0.12.
For `CCOc1nc2cccc(C(=O)O)c2n1Cc1ccc(-c2ccccc2-c2nc(=O)o[nH]2)cc1` [Azilsartan], the Cholesterol-free [1, 4] was 1.417, the Complete ([1]; NCI-H292 cells, complete media) was 1.021 and the Difference ([1]; complete vs cholesterol-free media, greater than 0 enhanced anti-cancer activity, about 0 neutral, below 0 antagonists) was −0.40. For the same compound, the “Cholesterol-free media + simvastatin (0.04 μM)” value [2, 5] was 1.196, the “Complete Media” value [2, 6] was 1.042 and the Difference [2, 15] was −0.15.
